Data reported in ChEMBL document CHEMBL1201862, “PubChem BioAssay data set” (2004).
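Grown in 96-well plates, cells were treated for 48 hours with each compound at five concentrations. Insufficient inhibition: endpoint recorded as highest concentration tested. Abbreviation: GI50, concentration required for 50% inhibition of growth.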 Active and inactive are the calls of the source. No stated cut-off is given here; in the data, active = GI50 up to about 1.1 µM and inactive = higher.

Tests used:
Experiment in all cases: DTP human tumour cell line panel, 48 h
[1] = system: CAKI-1
[2] = system: HOP-92
[3] = system: Hs-578T
[4] = system: CCRF-CEM
[5] = system: HL-60
[6] = system: ACHN
[7] = system: SN12C
[8] = system: OVCAR-3
[9] = system: RPMI-8226
[10] = system: SK-MEL-28
[11] = system: MDA-N
[12] = system: IGROV-1
[13] = system: U-251
[14] = system: HCT-116
[15] = system: K562
[16] = system: 786-0
[17] = system: LOX IMVI
[18] = system: OVCAR-5
[19] = system: HOP-62
[20] = system: SF-539

Measured: GI50

Cn1c(=O)c2c(nc(NCCCCl)n2CC(=O)O)n(C)c1=O
inactive: [1] > 100 µM | [2] > 100 µM | [3] > 100 µM | [4] > 100 µM | [5] > 100 µM | [6] > 100 µM | [7] > 100 µM | [8] > 100 µM | [9] > 100 µM | [10] > 100 µM | [11] > 100 µM | [12] > 100 µM | [13] > 100 µM | [14] > 100 µM | [15] > 100 µM | [16] > 100 µM | [17] > 100 µM | [18] > 100 µM | [19] > 100 µM

O=C(O)C1(Cc2ccccc2)Cc2cc3c(cc2C1)CCC3
inactive: [2] 21 µM | [3] 75.2 µM | [4] 45.1 µM | [5] 48.9 µM | [6] > 100 µM | [7] > 100 µM | [8] > 100 µM | [9] 58.1 µM | [10] > 100 µM | [11] > 100 µM | [20] > 100 µM | [12] > 100 µM | [13] 66.4 µM | [14] 42.9 µM | [15] 72.9 µM | [16] > 100 µM | [17] > 100 µM | [18] > 100 µM | [19] 99.3 µM

O=C(Nc1ccccc1)N(CCN(Cc1ccccc1)C(=O)Nc1ccccc1)CCN(Nc1ccccc1)C(=O)Nc1ccccc1
inactive: [1] > 100 µM | [2] > 100 µM | [3] > 100 µM | [4] > 100 µM | [5] > 100 µM | [6] > 100 µM | [7] > 100 µM | [8] > 100 µM | [9] > 100 µM | [10] > 100 µM | [11] > 100 µM | [12] > 100 µM | [13] > 100 µM | [14] > 100 µM | [15] > 100 µM | [16] > 100 µM | [17] > 100 µM | [18] > 100 µM | [19] > 100 µM

O=C(O)/C=C/c1ccc2c(c1)CC1(Cc3ccccc3C1)C2
inactive: [2] 52.2 µM | [3] > 100 µM | [4] 91.2 µM | [5] 37.5 µM | [6] 41.6 µM | [7] 44.5 µM | [8] 27.7 µM | [9] 96.8 µM | [11] > 100 µM | [20] 96.4 µM | [12] 56.4 µM | [13] 49.5 µM | [14] 23 µM | [15] 47.2 µM | [16] > 100 µM | [17] 38.1 µM | [18] > 100 µM | [19] 49.5 µM

O=C(O)CCc1c2ccc(=O)c(O)c-2oc2c(O)c(O)ccc12
inactive: [1] > 100 µM | [2] > 100 µM | [3] 14.2 µM | [4] 2.29 µM | [5] 44.3 µM | [6] 39.1 µM | [7] 15.9 µM | [8] 91.8 µM | [9] 32 µM | [10] > 100 µM | [11] 16.3 µM | [12] > 100 µM | [13] 30.1 µM | [14] 18.9 µM | [15] 24 µM | [16] 19.4 µM | [17] 20.1 µM | [18] > 100 µM | [19] > 100 µM

CN1C(=O)N/C(=C\c2ccc(S(=O)(=O)N/N=C\C(O)C(O)C(O)CO)cc2)C1=O (stereo unspecified)
inactive: [1] > 100 µM | [2] > 100 µM | [3] > 100 µM | [4] > 100 µM | [5] > 100 µM | [6] > 100 µM | [7] > 100 µM | [8] > 100 µM | [9] > 100 µM | [10] > 100 µM | [11] > 100 µM | [12] > 100 µM | [13] > 100 µM | [14] > 100 µM | [15] > 100 µM | [16] > 100 µM | [17] > 100 µM | [18] > 100 µM | [19] > 100 µM

Cc1cc(C)nc(NS(=O)(=O)c2ccc(Nc3c4ccccc4nc4c(C(=O)NNCCO)cccc34)cc2)n1
inactive: [1] > 100 µM | [2] > 100 µM | [3] > 100 µM | [4] 21 µM | [5] 42 µM | [6] > 100 µM | [7] > 100 µM | [8] 86.9 µM | [9] 15.7 µM | [10] > 100 µM | [11] > 100 µM | [12] > 100 µM | [13] > 100 µM | [15] 31 µM | [16] > 100 µM | [17] 34.6 µM | [18] > 100 µM | [19] > 100 µM

COC(=O)C(Cc1ccccc1)NC(=O)CSc1nnc(COc2ccc(Cl)cc2)n1-c1ccccc1 (stereo unspecified)
inactive: [2] 26.4 µM | [3] 26.7 µM | [4] 16.8 µM | [5] 20.6 µM | [6] 16.4 µM | [7] 21.2 µM | [9] 20.5 µM | [10] 27.2 µM | [11] 20.5 µM | [20] 22.4 µM | [12] 27.5 µM | [13] 18.5 µM | [14] 23.1 µM | [15] 27.4 µM | [16] 16.3 µM | [17] 14.6 µM | [18] 24.8 µM | [19] 15 µM

Cc1ccc(S(=O)(=O)OC2CCN(C)CC2)cc1
inactive: [2] 19.8 µM | [3] > 100 µM | [5] 18 µM | [6] 32.6 µM | [7] > 100 µM | [8] > 100 µM | [9] 23.2 µM | [10] > 100 µM | [11] > 100 µM | [20] 88.7 µM | [12] > 100 µM | [13] > 100 µM | [14] 46.6 µM | [15] 19.3 µM | [16] > 100 µM | [17] > 100 µM | [18] > 100 µM | [19] > 100 µM

COC(=O)CCC(C)[C@H]1CCC2C3CC[C@@H]4CC5(CC[C@]4(C)C3C[C@H](OC(C)=O)[C@@]21C)OOC1(CCCCC1)OO5 (stereo partly specified)
inactive: [1] 4.03 µM | [2] 46.6 µM | [3] 13.4 µM | [4] 5.3 µM | [5] 2.49 µM | [6] 8.32 µM | [7] > 100 µM | [8] 15.3 µM | [9] 1.94 µM | [10] 27.7 µM | [11] 8.26 µM | [20] 44.7 µM | [12] 2.12 µM | [13] 6.62 µM | [14] 3.24 µM | [15] 6.01 µM | [16] 12.1 µM | [18] 17.3 µM | [19] 8.89 µM
